Data as given in PubChem BioAssay (NCI).
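Dose response: 5 concentrations. Exposure: 48 h. Format: 96-well plates. Endpoint: linear interpolation; highest concentration if not reached. TGI denotes the concentration required for complete inhibition of growth.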

system: TK-10 renal; assay: NCI tumour cell line growth inhibition, 48 h

`O=C(CSc1c2ccccc2nc2ccccc12)Nc1ccccc1-c1ccccc1NC(=O)CSc1c2ccccc2nc2ccccc12` and `O=C1c2ccccc2C(=O)c2c1nc1ccccc1c2-c1cncc(-c2c3c(nc4ccccc24)C(=O)c2ccccc2C3=O)c1` cannot be ordered by TGI: over 100 µM for the first, over 100 µM for the second.

First: CC1(C)OC[C@@H]([C@H](O)C2C=CC(=O)S2)O1 (some centres not stated)
Second: CC(C)[Si]1(C(C)C)OCC2OC3(CO)C(Oc4nc(=O)ccn43)C2O[Si](C(C)C)(C(C)C)O1 (configuration not stated)
The TGI of the first is higher: over 100 µM for the first, 32.1 µM for the second.

`O=S(=O)(c1ccccc1)N1N=C2c3ccccc3CCC[C@H]2C1c1ccccc1` (some centres not stated) and `CCOC(=O)/C(=C/c1ccc(N(C)C)cc1)N(CC)CC` cannot be ordered by TGI: over 100 µM for the first, over 100 µM for the second.

system: U251 CNS; assay: NCI tumour cell line growth inhibition, 48 h

`COC(=O)[C@@]1(C)/C(=N/NS(=O)(=O)c2ccc(C)cc2)CCC[C@@H]1C` and `O=S(=O)(c1ccccc1)N1N=C2c3ccccc3CCC[C@H]2C1c1ccccc1` (some centres not stated) cannot be ordered by TGI: over 100 µM for the first, over 100 µM for the second.

`C=C(Nc1nc2ccc(C)cc2s1)C(=O)C(CC)C(=O)C(CC)CC1C(=O)NC(=O)NC1=O` (configuration not stated) and `COc1cccc(C2CC23C(=O)NC(=O)NC3=O)c1` (configuration not stated) cannot be ordered by TGI: over 100 µM for the first, over 100 µM for the second.

`COc1ccc(OC)c(/C=C(/C#N)c2ccccc2)c1` and `COc1ccc(C(C#N)NNC(=O)Cc2ccccc2)cc1OC` (configuration not stated) cannot be ordered by TGI: over 100 µM for the first, over 100 µM for the second.

`COCOC1C=CCCCC2=CC(C)=C(CC1)O2` (configuration not stated) and `C=CCN1CCC(O)(c2cc(C(=O)OCC)[nH]c2-c2cc(C)no2)C1` (configuration not stated) cannot be ordered by TGI: over 100 µM for the first, over 100 µM for the second.

Going from `CCCCC/C=C1\CCC(CN(C)C)C1=O` (configuration not stated) to `CCOC(=O)/C(=C/c1ccc(N(C)C)cc1)N(CC)CC`, the TGI rises from 20.7 µM to over 100 µM.

`CN(C)/N=C1/CCC(C(F)(F)F)(C(F)(F)F)O1` and `COC1(OC)CCCc2c1no[n+]2[O-]` cannot be ordered by TGI: over 100 µM for the first, over 100 µM for the second.

First: N#Cc1c(-c2ccc(Cl)cc2)c(C#N)c(=O)n(NS(=O)(=O)c2ccccc2)c1O
Second: CNCCCn1c2ccccc2c2c3c(c(-c4ccsc4)cc21)C(=O)NC3=O
The TGI of the first is higher: over 100 µM for the first, 3.71 µM for the second.

`COC(=O)c1nsc(OC)c1Cl` and `CC(C)=CC1CC(=[N+]=[N-])C(=O)C1(C)C` (configuration not stated) cannot be ordered by TGI: over 100 µM for the first, over 100 µM for the second.

`C=C(C)C1CCC2(C)CC1c1c(c(C)cc3c1[nH]c1ccccc13)O2` (configuration not stated) and `CCOC1c2cc(C(C)C)c(O)c(O)c2[C@@]23CCCC(C)(C)C2C1OC3=O` (some centres not stated) cannot be ordered by TGI: over 25 µM for the first, over 100 µM for the second.

`CN(CCN(C)C(=O)CCn1cc(F)c(=O)[nH]c1=O)C(=O)CCn1cc(F)c(=O)[nH]c1=O` and `C=CCN(C(=O)CNC(=O)C(F)(F)F)c1cc(OCc2ccccc2)c2c(c1)c(C)cn2S(=O)(=O)c1ccccc1` cannot be ordered by TGI: over 100 µM for the first, over 100 µM for the second.

`C=CN1C(=O)[C@H](Oc2ccccc2)[C@@H]1c1ccccc1` and `O=C1c2ccccc2C(=O)c2c1nc1ccccc1c2-c1cncc(-c2c3c(nc4ccccc24)C(=O)c2ccccc2C3=O)c1` cannot be ordered by TGI: over 100 µM for the first, over 45.8 µM for the second.

`CSc1ccsc1-c1sc(-c2cc(SC)c(-c3sc(-c4cc(SC)c(-c5sccc5SC)s4)cc3SC)s2)cc1SC` and `CS(=O)(=O)c1ccc(-c2cc(-c3ccc(S(C)(=O)=O)cc3)[n+](-c3cc(-c4ccccc4)c([O-])c(-c4ccccc4)c3)c(-c3ccc(S(C)(=O)=O)cc3)c2)cc1` cannot be ordered by TGI: over 100 µM for the first, over 100 µM for the second.

Compared with `O=C(CSc1c2ccccc2nc2ccccc12)Nc1ccccc1-c1ccccc1NC(=O)CSc1c2ccccc2nc2ccccc12`, `CC(C)[Si]1(C(C)C)OCC2OC3(CO)C(Oc4nc(=O)ccn43)C2O[Si](C(C)C)(C(C)C)O1` (configuration not stated) is lower in TGI: over 100 µM for the first, 28.1 µM for the second.

Compound `CC1(C)OC[C@@H]([C@H](O)C2C=CC(=O)S2)O1` (some centres not stated) has a TGI of 90.4 µM.

system: UACC-257 melanoma; assay: NCI tumour cell line growth inhibition, 48 h

`COC(=O)[C@@]1(C)/C(=N/NS(=O)(=O)c2ccc(C)cc2)CCC[C@@H]1C` and `COC(=O)C(C(=O)Cc1ccccc1[N+](=O)[O-])C(=O)OC` cannot be ordered by TGI: over 100 µM for the first, over 100 µM for the second.

`C=C(Nc1nc2ccc(C)cc2s1)C(=O)C(CC)C(=O)C(CC)CC1C(=O)NC(=O)NC1=O` (configuration not stated) and `COc1cccc(C2CC23C(=O)NC(=O)NC3=O)c1` (configuration not stated) cannot be ordered by TGI: over 100 µM for the first, over 100 µM for the second.

`COCOC1C=CCCCC2=CC(C)=C(CC1)O2` (configuration not stated) and `C=CCN1CCC(O)(c2cc(C(=O)OCC)[nH]c2-c2cc(C)no2)C1` (configuration not stated) cannot be ordered by TGI: over 100 µM for the first, over 100 µM for the second.

Compared with `CCCCC/C=C1\CCC(CN(C)C)C1=O` (configuration not stated), `CCOC(=O)/C(=C/c1ccc(N(C)C)cc1)N(CC)CC` is higher in TGI: 32.2 µM for the first, over 100 µM for the second.

`N#Cc1c(-c2ccc(Cl)cc2)c(C#N)c(=O)n(NS(=O)(=O)c2ccccc2)c1O` and `O=S(=O)(c1ccccc1)N1N=C2c3ccccc3CCC[C@H]2C1c1ccccc1` (some centres not stated) cannot be ordered by TGI: over 100 µM for the first, over 100 µM for the second.

`COC(=O)c1nsc(OC)c1Cl` and `COc1ccc(C(C#N)NNC(=O)Cc2ccccc2)cc1OC` (configuration not stated) cannot be ordered by TGI: over 100 µM for the first, over 100 µM for the second.

First: CNCCCn1c2ccccc2c2c3c(c(-c4ccsc4)cc21)C(=O)NC3=O
Second: C=CCN(C(=O)CNC(=O)C(F)(F)F)c1cc(OCc2ccccc2)c2c(c1)c(C)cn2S(=O)(=O)c1ccccc1
The TGI of the first is lower: 3.12 µM for the first, over 100 µM for the second.

Going from `CCOC1c2cc(C(C)C)c(O)c(O)c2[C@@]23CCCC(C)(C)C2C1OC3=O` (some centres not stated) to `CC(C)[Si]1(C(C)C)OCC2OC3(CO)C(Oc4nc(=O)ccn43)C2O[Si](C(C)C)(C(C)C)O1` (configuration not stated), the TGI falls from over 100 µM to 30.1 µM.

Going from `C=CN1C(=O)[C@H](Oc2ccccc2)[C@@H]1c1ccccc1` to `O=C1c2ccccc2C(=O)c2c1nc1ccccc1c2-c1cncc(-c2c3c(nc4ccccc24)C(=O)c2ccccc2C3=O)c1`, the TGI falls from over 100 µM to 22.4 µM.

`CSc1ccsc1-c1sc(-c2cc(SC)c(-c3sc(-c4cc(SC)c(-c5sccc5SC)s4)cc3SC)s2)cc1SC` and `CS(=O)(=O)c1ccc(-c2cc(-c3ccc(S(C)(=O)=O)cc3)[n+](-c3cc(-c4ccccc4)c([O-])c(-c4ccccc4)c3)c(-c3ccc(S(C)(=O)=O)cc3)c2)cc1` cannot be ordered by TGI: over 100 µM for the first, over 100 µM for the second.

`COC1(OC)CCCc2c1no[n+]2[O-]` and `CC1(C)OC[C@@H]([C@H](O)C2C=CC(=O)S2)O1` (some centres not stated) cannot be ordered by TGI: over 100 µM for the first, over 100 µM for the second.

First: CC(C)=CC1CC(=[N+]=[N-])C(=O)C1(C)C (configuration not stated)
Second: O=C(CSc1c2ccccc2nc2ccccc12)Nc1ccccc1-c1ccccc1NC(=O)CSc1c2ccccc2nc2ccccc12
The TGI of the first is higher: over 100 µM for the first, 75.8 µM for the second.
